# How the values were obtained:
# [1] = system: autophagy-related transcription factor EB (TFEB) in OVK18 and Mewo cells; assay: Elevated expression and nuclear localization of TFEB (western blotting, immunostaining); type: cell-based, human; details: 50 mM 4-trehalosamine, 100 μM IMCTA-C14 or 100 mM trehalose, 14 hours
# Procedure: Elevated expression and nuclear localization of autophagy-related transcription factor EB (TFEB) when human ovarian cancer cells or human malignant melanoma cells were treated with 4-trehalosamine or trehalose analog were determined by western blotting and immunostaining.
# Fractionation of nuclear and cytoplasm was performed in the following manner using buffer that was a modification of the buffer according to the report of Dignam et al. (J. D. Dignam et al., Nucleic Acids Res, 1983, 11 (5), p. 1475-1489).
# Human ovarian cancer cells OVK18 (obtained from RIKEN BRC) and human malignant melanoma cells Mewo (JCRB0066) were each inoculated on a 6-well plate at 2×10^5 cells/2 mL/well, and cultured in DMEM culture medium at 37° C. for 48 hours. After that, as with test example 10-1, a half of the culture fluid in each well was taken, and each compound was dissolved so that the final concentration is 50 mM 4-trehalosamine, 50 µM IMCTA-C14, 100 μM IMCTA-C14, or 100 mM trehalose. After dissolving it sufficiently, the cells were returned to the original well and treated at 37° C. for 14 hours. Untreated cells without addition of the compounds were used as control. […]
# The protein concentration of each fraction was measured with protein quantification reagent (XL-Bradford, integrale) and the amount of expression of TFEB in each fraction was examined by western blotting. […]
# [2] = Dynamics upon oral administration to mice (blood level, urinary and fecal excretion); type: in vivo, ICR mice; details: single oral dose 0.5 mg per g of body weight
# Procedure: 4-trehalosamine or trehalose dissolved in saline at 0.5 mg/10 μL per g of body weight was orally administered in a single dose to ICR mice (9-week to 10-week old, female, n=5) that had been fasted overnight. The five mice on which the same treatment had been performed were placed in the same cage.
# Urine and feces were regularly collected together. The collected feces were suspended in water at 200 mg/mL and centrifuged at 21,300×g for 5 minutes. The centrifuged supernatant of feces suspension and the collected urine were each diluted with methanol to 1/1,000, on which LC-MS analysis was performed under similar conditions to test example 1 and cumulative excretion of 4-trehalosamine (4TA) or trehalose (TRH) over time was calculated.
# Blood was regularly collected from tail vein in an amount of around 10 μL to 20 μL, and 200 μL of methanol was added to it after measurement. After agitation on a vortex, it was centrifuged at 21,000×g for 5 minutes. The supernatant was diluted with methanol to ⅕ and LC-MS analysis was performed on it under similar conditions to test example 1. The results for 4-trehalosamine are shown in FIG. 19G and the results for trehalose are shown in FIG. 19H for each individual (n=5).
smiles,measurement,setting,value
N[C@H]1[C@H](O)[C@@H](O)[C@@H](O[C@H]2O[C@H](CO)[C@@H](O)[C@H](O)[C@H]2O)O[C@@H]1CO [4-trehalosamine],expression and nuclear localization of TFEB,[1],elevated expression and nuclear localization of TFEB
same,absorption and blood circulation after oral administration,[2]; fasted,a portion of orally administered 4-trehalosamine is absorbed and circulates in blood for a certain amount of time
same,excretion,[2]; urine and feces,"excreted through feces and urine in the original form, without being degraded or modified"
